Drawing on ChEMBL document CHEMBL1154710, “Synthesis, anti-inflammatory and anticancer activity evaluation of some novel acridine derivatives” (2010), this text covers Activity and inhibition of growth for 17 compounds.

Assay type in all cases: functional
One assay has as its system Rattus norvegicus. The assay can be described thus: Antiinflammatory activity in albino Charles-Foster rat assessed as inhibition of carrageenan-induced paw oedema at 50 mg/kg, po administered 30 mins before carrageenan challenge […] after 1-3 hrs relative to control. Also on record: scale not given: the % may be the effect or the level left.
In the next assay the test system is MCF7. The assay can be described thus: Growth inhibition of human MCF7 cells at 10 uM after 48 hrs by SRB assay. To be noted: MCF7, 48 h, read-out: GI.
In the next assay the test system is HEp-2. Briefly: Growth inhibition of human Hep2 cells at 10 uM after 48 hrs by SRB assay. As to conditions: HEp-2, 48 h, read-out: GI.
The test system of the next assay is COLO 205. The assay can be described thus: Growth inhibition of human COLO205 cells at 10 uM after 48 hrs by SRB assay. As to conditions: COLO 205, 48 h, read-out: GI.
A short description of assay [1]: Growth inhibition of human 502713 cells at 10 uM after 48 hrs by SRB assay. To be noted: Homo sapiens, 502713, 48 h; read-out: GI.
The test system of another assay is HCT-15. Briefly: Growth inhibition of human HCT15 cells at 10 uM after 48 hrs by SRB assay. As to conditions: HCT-15, 48 h, read-out: GI.
The test system of another assay is A549. Briefly: Growth inhibition of human A549 cells at 10 uM after 48 hrs by SRB assay. To be noted: A549, 48 h, read-out: GI.
Another assay concerns IMR-32. Briefly: Growth inhibition of human IMR32 cells at 10 uM after 48 hrs by SRB assay. As to conditions: IMR-32, 48 h, read-out: GI.

Take `COc1ccc2nc3ccccc3c(NCCc3cccs3)c2c1`: the Activity in the assay with Rattus norvegicus amounted to 41.17%. In addition, the inhibition of growth at 10 µM with MCF7 is 44%; in the assay with HEp-2 it was 52%; in the assay on COLO 205, 69%; in assay [1], 67%; in the assay on HCT-15, 78%; with A549, 20%. The inhibition of growth at 10 µM with IMR-32 came out at 89%.
With `COc1ccc2nc3ccccc3c(NC(=S)NCCc3cccs3)c2c1`, in the assay with Rattus norvegicus, the Activity is recorded as 34.08%. In addition, the inhibition of growth at 10 µM in the assay with MCF7 worked out at 34%; with HEp-2, 28%; with COLO 205, 35%; in assay [1], 46%; with HCT-15 it was 45%; in the assay on A549, 42%. In the assay with IMR-32, the inhibition of growth at 10 µM came to 74%.
With `Cc1cccc2c(NCc3ccco3)c3ccccc3nc12`, in the assay with Rattus norvegicus, the Activity came to 0%. Besides, the inhibition of growth at 10 µM in the assay on MCF7 was 58%; in the assay with HEp-2, 51%; in the assay with COLO 205 it was 72%; in assay [1], 52%; with HCT-15, 74%; in the assay with A549, 52%. In the assay with IMR-32, the inhibition of growth at 10 µM came to 86%.
For `COc1cccc2c1C(=O)c1c(O)c3c(c(O)c1C2=O)C[C@@](O)(C(=O)CO)C[C@@H]3O[C@H]1C[C@H](N)[C@H](O)[C@H](C)O1` [DOXORUBICIN], the inhibition of growth at 10 µM turned out to be 48% with MCF7; 55% in the assay with HEp-2; 34% in the assay with COLO 205; 28% in assay [1]; 93% in the assay on HCT-15; 44% in the assay on A549. Also, the inhibition of growth at 10 µM in the assay on IMR-32 was found to be 86%.
In the case of `CO[C@@]12[C@H](COC(N)=O)C3=C(C(=O)C(C)=C(N)C3=O)N1C[C@@H]1N[C@@H]12` [MITOMYCIN], the inhibition of growth at 10 µM with HEp-2 stood at 58%; in the assay with COLO 205, 4%; in assay [1], 44%; with HCT-15, 25%; with A549 it was 40%; in the assay on IMR-32, 85%.
Take `COc1cccc2c(NCc3ccco3)c3ccccc3nc12`: the Activity in the assay on Rattus norvegicus amounted to 38.37%. Besides, the inhibition of growth at 10 µM with MCF7 amounted to 50%; in the assay with HEp-2 it was 54%; in the assay with COLO 205, 83%; in assay [1] it was 62%; in the assay on HCT-15 it was 71%; in the assay with A549, 36%. For the same compound, the inhibition of growth at 10 µM with IMR-32 was found to be 98%.
For `COc1cccc2c(NCCc3cccs3)c3ccccc3nc12`, in the assay with Rattus norvegicus, the Activity was 26.05%. Also, the inhibition of growth at 10 µM worked out at 37% with MCF7; 62% in the assay with HEp-2; 24% with COLO 205; 67% in assay [1]; 73% in the assay on HCT-15; 61% in the assay on A549. In the assay on IMR-32, the inhibition of growth at 10 µM turned out to be 78%.
In the case of `CC(=O)O[C@H]1C(=O)[C@@]2(C)[C@H]([C@H](OC(=O)c3ccccc3)[C@]3(O)C[C@H](OC(=O)[C@H](O)[C@@H](NC(=O)c4ccccc4)c4ccccc4)C(C)=C1C3(C)C)[C@]1(OC(C)=O)CO[C@@H]1C[C@@H]2O` [PACLITAXEL], the inhibition of growth at 10 µM with MCF7 was found to be 65%; with HEp-2 it was 75%; with COLO 205, 61%; in assay [1] it was 58%; in the assay with HCT-15, 84%; with A549, 51%. Also, the inhibition of growth at 10 µM in the assay with IMR-32 amounted to 58%.
For the compound `CC(C)Cc1ccc(C(C)C(=O)O)cc1` (stereo not given) [IBUPROFEN], in the assay on Rattus norvegicus, the Activity was 39%.
For `COc1cccc2c(NCC3CCCO3)c3ccccc3nc12` (racemic), the Activity with Rattus norvegicus is reported as 0%. Moreover, the inhibition of growth at 10 µM in the assay with MCF7 amounted to 52%; in the assay on HEp-2 it was 34%; in the assay with COLO 205, 66%; in assay [1], 60%; in the assay with HCT-15, 64%; in the assay on A549, 56%. Besides, the inhibition of growth at 10 µM in the assay on IMR-32 was 69%.
As for `COc1ccc2nc3ccccc3c(NC(=S)NCC3CCCO3)c2c1` (racemic), in the assay on Rattus norvegicus, the Activity is 29.57%. Besides, the inhibition of growth at 10 µM in the assay on MCF7 is 8%; with HEp-2 it was 8%; with COLO 205, 20%; in assay [1], 21%; with HCT-15, 41%; with A549, 24%. The inhibition of growth at 10 µM in the assay on IMR-32 was found to be 27%.
Consider `Cc1cccc2c(NC(=S)NCC3CCCO3)c3ccccc3nc12` (racemic), for which, in the assay on Rattus norvegicus, the Activity is 25.35%. The inhibition of growth at 10 µM in the assay on MCF7 came to 99%; with HEp-2 it was 14%; in the assay with COLO 205, 71%; in assay [1] it was 95%; in the assay on A549, 96%; with IMR-32 it was 21%.
Consider `COc1ccc2nc3ccccc3c(NCc3ccco3)c2c1`, for which the Activity in the assay with Rattus norvegicus came out at 22.96%. Also, the inhibition of growth at 10 µM with MCF7 came out at 44%; with HEp-2, 56%; in the assay on COLO 205 it was 88%; in assay [1] it was 65%; in the assay with HCT-15 it was 80%; in the assay on A549 it was 35%. For the same compound, the inhibition of growth at 10 µM with IMR-32 was 95%.
Regarding `Cc1cccc2c(NC(=S)NCc3ccco3)c3ccccc3nc12`, the Activity in the assay on Rattus norvegicus came out at 32.33%. Moreover, the inhibition of growth at 10 µM in the assay with MCF7 came to 94%; in the assay on HEp-2, 61%; in the assay with COLO 205 it was 88%; in assay [1], 95%; in the assay with A549 it was 46%; with IMR-32 it was 5%.
In the case of `Cc1cccc2c(NC(=S)NCCc3cccs3)c3ccccc3nc12`, in the assay with Rattus norvegicus, the Activity is listed as 30.7%. Besides, the inhibition of growth at 10 µM in the assay with MCF7 amounted to 92%; in the assay with HEp-2, 67%; in the assay with COLO 205, 19%; in assay [1], 71%; in the assay on A549 it was 53%; with IMR-32, 42%.
For `O=c1[nH]cc(F)c(=O)[nH]1` [FLUOROURACIL], the inhibition of growth at 10 µM with MCF7 amounted to 0%; in the assay with HEp-2 it was 29%; in the assay with COLO 205, 25%; in assay [1], 40%; with HCT-15 it was 29%; in the assay with A549, 0%. The inhibition of growth at 10 µM in the assay on IMR-32 was determined as 58%.
Regarding `Cc1cccc2c(NC(=S)NCCc3c[nH]c4ccccc34)c3ccccc3nc12`, in the assay with Rattus norvegicus, the Activity is 35.77%. Besides, the inhibition of growth at 10 µM in the assay on MCF7 was 95%; in the assay with HEp-2, 96%; in the assay on COLO 205, 98%; in assay [1], 90%; with A549, 84%; in the assay with IMR-32 it was 67%.
